Experimental data published in US9975907B2, “Pyrimidinones as PI3K inhibitors” (Incyte Corporation, priority 2009, dated 2018).

What was measured:
PI3Kδ = PI3Kδ (Homo sapiens (Human), UniProt O00329); assay: PI3K Enzyme Assay A2 ([γ-33P]ATP filter plate), PI3Kδ; type: biochemical; conditions: column a, Examples 15, 30 and 44 used Assay A2, 1000 μM ATP
Method: Materials: Lipid kinase substrate, phosphoinositol-4,5-bisphosphate (PIP2), was purchased from Echelon Biosciences (Salt Lake City, Utah). PI3K isoforms α, β, δ and γ were purchased from Millipore (Bedford, Mass.). ATP, MgCh, DTT, EDTA, MOPS and CHAPS were purchased from Sigma-Aldrich (St. Louis, Mo.). The kinase reaction was conducted in clear-bottom 96-well plate from Thermo Fisher Scientific in a final volume of 24 μL. Inhibitors were first diluted serially in DMSO and added to the plate wells before the addition of other reaction components. The final concentration of DMSO in the assay was 0.5%. The PI3K assays were carried out at room temperature in 20 mM MOPS, pH 6.7, 10 mM MgCl2, 5 mM DTT and CHAPS 0.03%. The reaction mixture was prepared containing 50 μM PIP2, kinase and varying concentration of inhibitors. Reactions were initiated by the addition of ATP containing 2.2 μCi [γ-^33P]ATP to a final concentration of 1000 μM. […] Reactions were incubated for 180 min and terminated by the addition of 100 μL of 1 M potassium phosphate pH 8.0, 30 mM EDTA quench buffer. […] After the plate sealing, the radioactivity of the product was determined by scintillation counting on Topcount (Perkin-Elmer). […]

[1] = test system: Pfeiffer cell line (diffuse large B cell lymphoma); assay: Pfeiffer Cell Proliferation Assay; type: cell-based; conditions: Homo sapiens, Pfeiffer, 3-4 days, [3H]-thymidine incorporation
Method: Pfeiffer cell line (diffuse large B cell lymphoma) was purchased from ATCC (Manassas, Va.) and maintained in the culture medium recommended (RPMI and 10% FBS). To measure the anti-proliferation activity of the PI3Kδ submittals, the Pfeiffer cells were plated with the culture medium (2×10^3 cells/well/per 200 μl) into 96-well ultra-low binding plates (Corning, Corning, N.Y.), in the presence or absence of a concentration range of test compounds. After 3-4 days, [^3H]-thymidine (1 μCi/well) (PerkinElmer, Boston, Mass.) in PBS was then added to the cell culture for an additional 12 hrs before the incorporated radioactivity was separated by filtration with water through GF/B filters (Packard Bioscience, Meriden, Conn.) and measured by liquid scintillation counting with a TopCount (Packard Bioscience). See Table 3 for data related to compounds of the invention.

[2] = test system: purified B cells from human PBMC; assay: B Cell Proliferation Assay; type: cell-based; conditions: anti-human IgM stimulated, three days, [3H]-thymidine incorporation
Method: To acquire B cells, human PBMC were isolated from the peripheral blood of normal, drug free donors by standard density gradient centrifugation on Ficoll-Hypague (GE Healthcare, Piscataway, N.J.) and incubated with anti-CD19 microbeads (Miltenyi Biotech, Auburn, Calif.). The B cells were then purified by positive immunosorting using an autoMacs (Miltenyi Biotech) according to the manufacturer's instruction.
The purified B cells (2×10^5/well/200 μL) were cultured in 96-well ultra-low binding plates (Corning, Corning, N.Y.) in RPMI1640, 10% FBS and goat F(ab′)2 anti-human IgM (10 μg/ml) (Invitrogen, Carlsbad, Calif.), in the presence of different amount of test compounds, for three days. [^3H]-thymidine (1 μCi/well) (PerkinElmer, Boston, Mass.) in PBS was then added to the B cell cultures for an additional 12 hrs before the incorporated radioactivity was separated by filtration with water through GF/B filters (Packard Bioscience, Meriden, Conn.) and measured by liquid scintillation counting with a TopCount (Packard Bioscience). Compounds having and IC^50 value of 10 μM or less are considered active. See Table 2 for data related to compounds of the invention.

Chain of PI3Kδ (O00329 whole entry, species assumed, canonical isoform): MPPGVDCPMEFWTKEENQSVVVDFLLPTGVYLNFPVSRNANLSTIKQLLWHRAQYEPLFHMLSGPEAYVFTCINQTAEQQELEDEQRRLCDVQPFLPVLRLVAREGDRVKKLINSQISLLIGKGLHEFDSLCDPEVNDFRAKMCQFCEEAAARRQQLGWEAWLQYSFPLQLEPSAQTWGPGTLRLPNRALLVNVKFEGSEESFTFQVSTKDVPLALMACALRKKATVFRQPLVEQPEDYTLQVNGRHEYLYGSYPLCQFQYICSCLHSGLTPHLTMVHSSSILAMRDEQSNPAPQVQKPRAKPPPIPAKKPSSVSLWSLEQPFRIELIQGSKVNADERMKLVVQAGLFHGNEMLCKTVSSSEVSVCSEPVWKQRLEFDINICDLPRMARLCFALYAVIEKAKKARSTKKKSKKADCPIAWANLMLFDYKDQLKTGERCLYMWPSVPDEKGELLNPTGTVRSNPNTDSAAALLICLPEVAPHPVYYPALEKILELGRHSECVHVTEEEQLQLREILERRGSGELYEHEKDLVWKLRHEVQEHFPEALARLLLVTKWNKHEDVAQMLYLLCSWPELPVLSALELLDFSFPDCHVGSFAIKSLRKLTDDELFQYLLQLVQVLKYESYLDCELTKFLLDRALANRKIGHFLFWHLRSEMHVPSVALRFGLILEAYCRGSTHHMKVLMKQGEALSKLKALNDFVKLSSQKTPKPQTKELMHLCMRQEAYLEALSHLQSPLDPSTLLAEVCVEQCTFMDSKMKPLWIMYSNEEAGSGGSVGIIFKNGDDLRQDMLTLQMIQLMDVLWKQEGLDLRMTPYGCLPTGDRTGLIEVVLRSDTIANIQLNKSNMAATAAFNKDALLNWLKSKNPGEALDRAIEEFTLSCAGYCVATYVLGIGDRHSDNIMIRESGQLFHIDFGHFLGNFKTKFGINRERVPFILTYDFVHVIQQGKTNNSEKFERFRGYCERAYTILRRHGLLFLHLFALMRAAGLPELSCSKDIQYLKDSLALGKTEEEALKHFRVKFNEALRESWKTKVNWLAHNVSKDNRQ
Chain of PI3Kδ (P27986 whole entry partner, species assumed, canonical isoform): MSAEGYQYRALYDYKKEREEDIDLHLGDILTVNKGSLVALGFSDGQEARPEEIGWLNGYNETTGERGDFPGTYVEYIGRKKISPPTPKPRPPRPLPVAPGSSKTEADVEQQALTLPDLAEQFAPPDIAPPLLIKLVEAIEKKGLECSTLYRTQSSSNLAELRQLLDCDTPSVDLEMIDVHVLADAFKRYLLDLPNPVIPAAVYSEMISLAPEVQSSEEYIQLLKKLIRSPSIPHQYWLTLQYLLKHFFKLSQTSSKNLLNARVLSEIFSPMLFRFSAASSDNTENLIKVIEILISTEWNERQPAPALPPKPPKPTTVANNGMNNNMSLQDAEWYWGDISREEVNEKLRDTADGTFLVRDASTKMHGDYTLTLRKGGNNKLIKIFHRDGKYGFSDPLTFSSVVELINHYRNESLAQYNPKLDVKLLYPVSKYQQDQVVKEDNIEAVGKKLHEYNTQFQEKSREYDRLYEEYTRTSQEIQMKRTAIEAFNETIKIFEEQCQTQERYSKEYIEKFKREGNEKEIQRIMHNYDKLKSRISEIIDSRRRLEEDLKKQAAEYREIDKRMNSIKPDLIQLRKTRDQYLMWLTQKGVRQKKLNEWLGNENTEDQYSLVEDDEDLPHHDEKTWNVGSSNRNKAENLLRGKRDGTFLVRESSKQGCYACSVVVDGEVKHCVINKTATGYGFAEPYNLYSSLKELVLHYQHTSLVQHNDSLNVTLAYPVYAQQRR

- IC50 (PI3Kδ): < 0.05 µM
- IC50 [1]: < 0.05 µM
SMILES: Cc1csc2nc(C(C)Nc3ncnc4[nH]cnc34)c(-c3cc(F)cc(F)c3)c(=O)n12 (single isomer, unassigned) [Example 44, 6-(3,5-difluorophenyl)-3-methyl-7-[1-(9H-purin-6-ylamino)ethyl]-5H-[1,3]thiazolo[3,2-a]pyrimidin-5-one]
- IC50 [2]: < 0.05 µM
